Measurements published in patent US20250041377A1, “PHARMACEUTICAL USE” (ENLITISA (SHANGHAI) PHARMACEUTICAL CO., LTD., priority 2018, published 2025).
Where a SMILES comes first, the peptide text is derived from it. Where no end group is shown, it is not given here. [ ]: non-standard residue; d: D form. Dopa = N[C@@H](Cc1ccc(O)c(O)c1)C(=O)O; Hyp = O=C(O)[CH]1C[CH](O)CN1; 3Hyp = 3-hydroxyproline

Key:
[1] = test system: carrageenan-induced acute inflammation in subcutaneous air pouch; experiment: Air pouch model, histological scores of skin biopsies; assay type: in vivo, C57BL/6 mice; set-up: Fibroplastic proliferation score: scale not given here; settings: for Fibroplastic proliferation score / Inflammation score / Edema Score: 0.6 mg/mL, 300 μg/mouse injected into air pouch 1 hour before carrageenan; for Inflammation score: HE slices scored 1-3 points; for Edema Score: scored 1-3 points; for Sum: sum of scores, 300 μg/mouse into air pouch
Protocol: Healthy adult male C57BL/6 mice weighing between 20 and 30 g were supplied by Nanjing Biomedicial Research Institute of Nanjing University (NBRI). Prior to any experiments being conducted, mice were housed under standardized conditions (at a constant temperature of 22±2° C., with alternating 12 hour periods of light and darkness), and were fed on a standard mouse diet with water, for about a week.
General anesthesia was induced using intraperitoneal 3% chloral hydrate (Sinopharm Chemical Reagent Co., Ltd., Shanghai, China; 1 mL/10 g of body weight). The hair of the entire dorsum was shaved and depilated 1 day before sterile air injection.
Air pouches were produced by subcutaneous injection of sterile air (5 mL) into the intrascapular area of the mice. After three days, another injection of air (3 mL) was performed to maintain the pouches. In order to induce acute inflammation, three days after this final injection, animals received an injection of sterile carrageenan solution (CP Kelco, Taixing, Jiangsu Province, China. 1%, 0.5 mL; produced by adding 0.1 g of carrageenan powder into a beaker containing 10 mL of 0.9% saline solution and stirring). Mice were pre-treated with test samples or vehicle 1 hour before and 23 hours after the carrageenan injection into the subcutaneous air pouch. Animals were sacrificed 24 hours after the carrageenan injection.
Skin biopsies were taken from the air pouches. A part of the biopsy was fixed in formalin (produced by adding ultra pure water to 50 mL of a 40% formaldehyde solution (Nanchang Rain Dew Experimental Equipment Co., Ltd., Nanchang, Hubei Province, China) up to a total volume of 500 mL) and analyzed by histological embedding in paraffin wax, sectioning and staining.
After conducting some preliminary experiments to validate the model, an experiment was conducted in which mice were treated by administering test samples or vehicle in accordance with Table 1 below.
All the substances listed in Table 1 were administrated topically by directly injecting into the air pouches.
The histological specimens were analyzed and an inflammation score, an activity score (i.e. the number and density of neutrophils shown in pathological slides, indicating the degree of inflammation and, in the case of open wound and infective diseases, the degree of infection), an edema score and a fibroblast proliferation score were estimated as follows.
The HE stained slices were observed under an optical microscope and were scored (1, 2 or 3 points) according to the perceived inflammation level (in cases showing only a small amount of inflammatory cells scattered in the area-1 point (mild); in cases where many inflammatory cells were observed-2 points (moderate); and, in cases with diffuse infiltration-3 points (severe). A similar scoring system was employed for edema levels (3 points for most severe and 1 point for mild) after overall observation. Scores for neutrophils employed the same methodology as that employed for inflammatory cells.

[2] = Stability in phosphate buffer at different pHs (colour, HPLC peak area, purity); assay type: physicochemical; set-up: key to change of colour: NO means no colour changed was observed; + means a slight colour change is observed; ++ means a significant colour change is observed; settings: for stability (overall result): phosphate buffer pH 5.3, 7.2, 8.1, room temperature then 45° C., 6 days
Protocol: Stabilities of Compounds A and B (obtained as described in Examples 1 and 3 above) were tested as follows.
10 mg of the compounds were each dissolved in 1 mL of distilled water to make a stock solution with a concentration of 10 mg/mL. Then, 200 μL of the stock solutions were diluted with 20 mM phosphate buffer (PB; Sigma-Aldrich China) with different pHs as indicated in Table 8 below.
All of the samples above were filtered through a 0.22 μm membrane (SLGV033RS; Sigma-Aldrich China) to remove potential bacteria in the solution on a super-clean bench after being prepared.
All the samples above were stored at room temperature and, three days later, were transferred to a 45° C. oven after initial sample analysis by HPLC (Column: Angilent ZORBAX Eclipse XDB-C18 (4.6×250 mm; 5 μm) (SN: USNH008244); buffer: A: 0.1% TFA in Water; B: 0.1% TFA in ACN; gradient: 0-25 minutes: 5%-30% B; 25-30 min: 100% B; flow rate: 1 mL/min; detection wavelength: 220 nm; sample volume: 20 μL).
The stability of the above samples was studied by observing the change of colour (Table 9), HPLC peak areas (Table 10) and purity (Table 11). The pH values for all samples were measured as being stable during the testing period.

[3] = 20 mM phosphate buffer pH 5.3, Day 0
[4] = 20 mM phosphate buffer pH 7.2, Day 0
[5] = 20 mM phosphate buffer pH 8.1, Day 0
[6] = pH 5.3, Day 1, room temperature
[7] = pH 5.3, Day 3 (Transfer to 45° C.)
[8] = pH 7.2, Day 1, room temperature
[9] = pH 7.2, Day 3 (Transfer to 45° C.)
[10] = pH 8.1, Day 1, room temperature
[11] = pH 8.1, Day 3 (Transfer to 45° C.)

For `CC(N)C(=O)NC(CCCCN)C(=O)N1CCCC1C(=O)NC(CO)C(=O)NC(Cc1ccc(O)cc1)C(=O)N1CC(O)CC1C(=O)N1CC(O)CC1C(=O)NC(C(=O)NC(Cc1ccc(O)cc1)C(=O)NC(CCCCN)C(=O)O)C(C)O` (stereo not drawn) [Compound B, Ala-Lys-Pro-Ser-Tyr-Hyp-Hyp-Thr-Tyr-Lys] (H-AKPSY[Hyp][Hyp]TYK-OH; configuration not given here), the Fibroplastic proliferation score [1] was 1.00, the Inflammation score [1] was 1.6 and the “Edema Score” value [1] was 1.2. For the same compound, the Sum [1] was 2.8, the “HPLC peak area as area % of Day 0's result” value (“HPLC peak area as area %” for short) [2, 3] was 100% and the change of colour [2, 3] was “NO”. For the same compound, the “purity (HPLC) in stability study” value [2, 3] was 99.2%, the change of colour [2, 4] was “NO” and the “purity (HPLC) in stability study” value [2, 4] was 99.6%. The “HPLC peak area as area %” value [2, 5] was 100%, the change of colour [2, 5] was “NO” and the “purity (HPLC) in stability study” value [2, 5] was 99.5%. The “HPLC peak areas over time” value ([2]; at pH 7.2 and pH 8.1) was “decreased significantly”, the “HPLC peak area as area %” value [2, 6] was 100.0% and the change of colour [2, 6] was “NO”. For the same compound, the “purity (HPLC) in stability study” value [2, 6] was 99.2%, the “HPLC peak area as area %” value [2, 7] was 99.9% and the change of colour [2, 7] was “NO”. The “purity (HPLC) in stability study” value [2, 7] was 98.4%, the “HPLC peak area as area %” value ([2]; pH 5.3, Day 6 (45° C.)) was 102.4% and the change of colour ([2]; pH 5.3, Day 6 (45° C.)) was “NO”. For the same compound, the “purity (HPLC) in stability study” value ([2]; pH 5.3, Day 6 (45° C.)) was 99.0%, the change of colour [2, 8] was “NO” and the “purity (HPLC) in stability study” value [2, 8] was 99.3%. For the same compound, the “HPLC peak area as area %” value [2, 9] was 100%, the change of colour [2, 9] was “NO” and the “purity (HPLC) in stability study” value [2, 9] was 98.7%. For the same compound, the “HPLC peak area as area %” value ([2]; pH 7.2, Day 6 (45° C.)) was 100.6%, the change of colour ([2]; pH 7.2, Day 6 (45° C.)) was “NO” and the “purity (HPLC) in stability study” value ([2]; pH 7.2, Day 6 (45° C.)) was 98.2%. For the same compound, the “HPLC peak area as area %” value [2, 10] was 98.9%, the change of colour [2, 10] was “NO” and the “purity (HPLC) in stability study” value [2, 10] was 99.4%. For the same compound, the “HPLC peak area as area %” value [2, 11] was 99.2%, the change of colour [2, 11] was “NO” and the “purity (HPLC) in stability study” value [2, 11] was 98.4%. The “HPLC peak area as area %” value ([2]; pH 8.1, Day 6 (45° C.)) was 97.0%, the change of colour ([2]; pH 8.1, Day 6 (45° C.)) was “NO” and the “purity (HPLC) in stability study” value ([2]; pH 8.1, Day 6 (45° C.)) was 96.4%. For the same compound, the “stability (overall result)” value [2] was “stable at all pH values” and the “HPLC peak areas over time” value ([2]; three samples, pH 5.3, 7.2, 8.1) was “almost unchanged”.

For “Ala-Lys-Pro-Ser-Tyr-Hyp-Hyp-Thr-DOPA-Lys (AKPSY[3Hyp][Hyp]T[Dopa]K; listed as Mytilus edulis) [Compound A]”, the Fibroplastic proliferation score [1] was 0.2, the Inflammation score [1] was 1.6 and the “Edema Score” value [1] was 1.8. The Sum [1] was 3.4, the “HPLC peak area as area %” value [2, 3] was 100% and the change of colour [2, 3] was “NO”. For the same compound, the “purity (HPLC) in stability study” value [2, 3] was 99.4%, the “HPLC peak area as area %” value [2, 4] was 100% and the change of colour [2, 4] was “NO”. For the same compound, the “purity (HPLC) in stability study” value [2, 4] was 98.9%, the “HPLC peak area as area %” value [2, 5] was 100% and the change of colour [2, 5] was “NO”. For the same compound, the “purity (HPLC) in stability study” value [2, 5] was 96.3%, the “oxidation judged by HPLC purity” value ([2]; at pH 7.2 and pH 8.1) was “most of Compound A was oxidized” and the “HPLC peak area as area %” value [2, 6] was 100.1%. For the same compound, the change of colour [2, 6] was “NO”, the “purity (HPLC) in stability study” value [2, 6] was 99.2% and the “HPLC peak area as area %” value [2, 7] was 100.3%. For the same compound, the change of colour [2, 7] was “NO”, the “purity (HPLC) in stability study” value [2, 7] was 99.4% and the “HPLC peak area as area %” value ([2]; pH 5.3, Day 6 (45° C.)) was 99.6%. The change of colour ([2]; pH 5.3, Day 6 (45° C.)) was “NO”, the “purity (HPLC) in stability study” value ([2]; pH 5.3, Day 6 (45° C.)) was 98.0% and the “HPLC peak area as area %” value [2, 8] was 89.0%. The change of colour [2, 8] was “+”, the “purity (HPLC) in stability study” value [2, 8] was 92.1% and the “HPLC peak area as area %” value [2, 9] was 41.7%. For the same compound, the change of colour [2, 9] was “+”, the “purity (HPLC) in stability study” value [2, 9] was 94.8% and the “HPLC peak area as area %” value ([2]; pH 7.2, Day 6 (45° C.)) was 11.5%. For the same compound, the change of colour ([2]; pH 7.2, Day 6 (45° C.)) was “++”, the “purity (HPLC) in stability study” value ([2]; pH 7.2, Day 6 (45° C.)) was 13.8% and the “HPLC peak area as area %” value [2, 10] was 64.8%. For the same compound, the change of colour [2, 10] was “++”, the “purity (HPLC) in stability study” value [2, 10] was 61.0% and the “HPLC peak area as area %” value [2, 11] was 21.7%. For the same compound, the change of colour [2, 11] was “++”, the “purity (HPLC) in stability study” value [2, 11] was 52.5% and the “HPLC peak area as area %” value ([2]; pH 8.1, Day 6 (45° C.)) was 3.8%. The change of colour ([2]; pH 8.1, Day 6 (45° C.)) was “++”, the “purity (HPLC) in stability study” value ([2]; pH 8.1, Day 6 (45° C.)) was 3.9% and the “stability (overall result)” value [2] was “stable only at pH 5.3”.
